Publication PMC10166855, “Tau activation of microglial cGAS–IFN reduces MEF2C-mediated cognitive resilience” (Nature neuroscience, 2023)

Target: human cGAS (cyclic GMP–AMP synthase) (Homo sapiens, UniProt Q8N884)
Test: cell-free cGAS activity assay, ATP depletion by Kinase-Glo luminescence
Format: biochemical
From the text: cell-free cGAS activity assay, ATP depletion by Kinase-Glo luminescence on human cGAS (cyclic GMP–AMP synthase) | Dose-dependent inhibition of cGAS activity (as measured in a) in response to HT-DNA.

human cGAS (cyclic GMP–AMP synthase), sequence (Q8N884 whole entry): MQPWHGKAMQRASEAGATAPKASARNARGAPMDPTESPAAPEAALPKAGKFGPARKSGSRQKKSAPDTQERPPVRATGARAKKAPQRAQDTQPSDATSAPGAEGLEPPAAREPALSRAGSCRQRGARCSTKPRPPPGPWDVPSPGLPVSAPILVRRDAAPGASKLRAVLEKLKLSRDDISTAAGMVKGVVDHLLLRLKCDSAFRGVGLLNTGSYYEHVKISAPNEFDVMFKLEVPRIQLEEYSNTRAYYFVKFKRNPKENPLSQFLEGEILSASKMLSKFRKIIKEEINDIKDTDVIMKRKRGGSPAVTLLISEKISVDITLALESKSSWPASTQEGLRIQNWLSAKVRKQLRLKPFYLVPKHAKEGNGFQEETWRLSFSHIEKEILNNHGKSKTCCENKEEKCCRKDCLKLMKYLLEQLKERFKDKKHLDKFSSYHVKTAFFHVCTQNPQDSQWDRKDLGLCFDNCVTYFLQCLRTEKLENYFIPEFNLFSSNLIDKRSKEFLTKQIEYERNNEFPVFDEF

TDI-8246
IC50: 81.2 nM
